According to patent US4122078A, “Antigens and antibodies of catecholamines” (priority 1975, dated 1978):

Tests used:
[1] = tested on: epinephrine antibodies (γ-globulin fraction obtained in Example 2); assay: Equilibrium dialysis method, specificity of the epinephrine antibodies; set-up: species or system rabbit; settings: binding of 3H-DL-epinephrine (10μl of 3.4×10^-5 M) with 10μl of 3.4×10^-3 M compound; antibody 5.5 × 10^-6 M; 25° C; 100 = no compound
Protocol: The γ-globulin fraction obtained in Example 2 was dialyzed against the phosphate buffered saline and a solution of the final concentration of 0.94mg/ml was performed prepared. The γ-globulin solution was used as the antibody solution in this method. To the phosphate buffered saline used in this procedure, 0.01% of sodium metabisufite(Na2 S2 O5) and 0.015% ethylenediaminetetraacetic acid disodium salt were added.
An equilibrium dialysis apparatus of 2ml capacity was used and 500μl of the antibody solution was poured into one of a pair cell(cell A) and into another cell(cell B), 10μl of the phosphate buffered saline solution of DL-epinephrine labelled with tritium(^3 H) in a concentration of 3.4×10^-5 M and 490μl of phosphate buffered saline were introduced. They were shaked at 25° C to reach equilibrium and then radioactivity of each solution were counted. The difference of each counts was calculated and made as the standard.
Then, 500μl of γ-globulin solution was put in cell A, and in cell B were introduced 10μl of a solution of the concentration of 3.4×10^-3 M of epinephrine or one of other catecholamine or analogue compounds, 10μl of a phosphate buffered saline solution of ^3 H-epinephrine (3.4×10^-5 M) and 480μl of phosphate buffered saline. The solutions were shaked by the same manner as above and after equilibrium, the radioactivity of each solution were counted. The difference was calculated and the relative bindings were calculated from the standard.

antiserum to L-dopa-BSA = assay: Ouchterlony method, specificity of antiserum to L-dopa-BSA; type: binding, rabbit; set-up: key: the degree of the precipitate formation were indicated by the signs of +++, ++,+-, and -, in turn; the degree of the precipitate formation were indicated by the signs of +++, ++,+-, and -, in turn; the degree of the precipitate formation were indicated by the signs of +++, ++,+-, and -, in turn; the degree of the precipitate formation were indicated by the signs of +++, ++,+-, and -, in turn; settings: antigen 1mg/ml; antiserum after removal of antibodies to carrier material
Protocol: The phosphate buffered saline solution of the conjugate was mixed with an equal volume of complete Freund's adjuvant to prepare a w/o type emulsion. The emulsion was intradermally injected to rabbit foot pads in the amount of 2-3mg of the antigen. After four weeks, phosphate buffered saline solution of the conjugate (1mg) was injected into the marginal vein of the rabbit ear. (This operation can be replaced by injecting subcutaneously the w/o emulsion of phosphate buffered saline solution of the conjugate (1mg) and incomplete Freund's adjuvant). One week after the booster injection, the rabbit were bled and the antisera were obtained.
Agar was dissolved in phosphate buffered saline with warming to yield a final concentration of 1.2% and the solution was spread 2 mm in thickness on a glass plate. After cooling, 7 holes of 2mm diameter were made on the center and corners of a true hexagon with 5 mm side. In the center hole, the antiserum obtained above or diluted thereof to 1/2-1/3 with the phosphate buffered saline was filled. […] Therefore, an equal volume of BSA solution (1mg/ml) was added to the antiserum and the mixture was allowed to stand at 37° C for 1 hour, then at 4° C overnight. […] The resulting solution was passed through a DEAE-cellulose column and the first fraction (gamma globulin fraction,γG-fraction) was collected with examining the absorbance at 280nm. […]

[2] = tested on: antiserum to epinephrine-BSA; assay: Ouchterlony method, specificity of antiserum to epinephrine-BSA; type: binding, rabbit; set-up: key: the degree of the precipitate formation were indicated by the signs of +++, ++,+-, and -, in turn; the degree of the precipitate formation were indicated by the signs of +++, ++,+-, and -, in turn; the degree of the precipitate formation were indicated by the signs of +++, ++,+-, and -, in turn; the degree of the precipitate formation were indicated by the signs of +++, ++,+-, and -, in turn; settings: antigen 1mg/ml; antiserum after removal of antibodies to carrier material
Protocol: (§1) Agar was dissolved in phosphate buffered saline with warming to yield a final concentration of 1.2% and the solution was spread 2 mm in thickness on a glass plate. After cooling, 7 holes of 2mm diameter were made on the center and corners of a true hexagon with 5 mm side. In the center hole, the antiserum obtained above or diluted thereof to 1/2-1/3 with the phosphate buffered saline was filled. In the corner holes, the phosphate buffered saline solution of the conjugate (0.5-1.0mg/ml) and BSA were filled alternately. […] Therefore, an equal volume of BSA solution (1mg/ml) was added to the antiserum and the mixture was allowed to stand at 37° C for 1 hour, then at 4° C overnight. The resulted precipitates were removed by centrifuging. […] This antiserum was then dialyzed with 6M urea solution for 15 hours followed with phosphate buffer (0.007M NaH2 PO4,pH 6.3) for 2 days. The resulting solution was passed through a DEAE-cellulose column and the first fraction (gamma globulin fraction,γG-fraction) was collected with examining the absorbance at 280nm. […] The γG-fraction was dialyzed with water and lyophilized for the stock.
Epinephrine specific antiserum was produced and γG-fraction was obtained by the same manner as in Example 1 using the phosphate buffered saline solution of the conjugate and complete Freund's adjuvant. […]

[3] = tested on: antiserum to dopamine-BSA; assay: Ouchterlony method, specificity of antiserum to dopamine-BSA; type: binding, rabbit; set-up: key: the degree of the precipitate formation were indicated by the signs of +++, ++,+-, and -, in turn; the degree of the precipitate formation were indicated by the signs of +++, ++,+-, and -, in turn; the degree of the precipitate formation were indicated by the signs of +++, ++,+-, and -, in turn; the degree of the precipitate formation were indicated by the signs of +++, ++,+-, and -, in turn; settings: antigen 1mg/ml; antiserum after removal of antibodies to carrier material
Protocol: as §1
According to the same manner as in Example 1, the dopamine specific antibody and γG-fraction thereof was obtained.
(§2) The specificity of antisera to the antigens was examined by the Ouchterlony method. […]

[4] = tested on: antiserum to norepinephrine; assay: Ouchterlony method, specificity of antiserum to norepinephrine; type: binding, rabbit; set-up: key: the degree of the precipitate formation were indicated by the signs of +++, ++,+-, and -, in turn; the degree of the precipitate formation were indicated by the signs of +++, ++,+-, and -, in turn; the degree of the precipitate formation were indicated by the signs of +++, ++,+-, and -, in turn; the degree of the precipitate formation were indicated by the signs of +++, ++,+-, and -, in turn; settings: antigen 1mg/ml; antiserum after removal of antibodies to carrier material
Protocol: as §1
By the same manner as in Example 1, the antiserum of norepinephrine was produced and after removing the BSA-antibody, the γ-globuline fraction was obtained.
as §2

| Compound | relative binding (%) [1] | further results |
| --- | --- | --- |
| NCCc1ccc(O)c(O)c1 [dopamine] | 88.0% | – |
| N[C@@H](Cc1ccc(O)c(O)c1)C(=O)O [L-dopa] | 90.7% | – |
| COc1cc(CC(=O)O)ccc1O [4-hydroxy-3-methoxyphenylacetic acid] | 91.7% | – |
| CNC[C@H](O)c1ccc(O)c(O)c1 [L-epinephrine] | 0% | – |
| NC[C@H](O)c1ccc(O)c(O)c1 [L-norepinephrine] | 54.8% | – |
| CNCC(O)c1ccc(O)c(OC)c1 (racemic) [DL-methanephrine] | 81.7% | – |
| O=C(O)Cc1ccc(O)c(O)c1 [3,4-dihydroxyphenylacetic acid] | 83.8% | – |
| norepinephrine-BSA: 20-30 moles of norepinephrine conjugated to one mole of BSA | – | degree of the precipitate formation, antiserum to L-dopa-BSA (antiserum to L-dopa-BSA): +-; degree of the precipitate formation, antiserum to epinephrine-BSA [2]: +-; degree of the precipitate formation, antiserum to dopamine-BSA [3]: +-; degree of the precipitate formation, antiserum to norepinephrine [4]: ++ |
| COc1cc(C(O)CN)ccc1O (racemic) [DL-normetanephrine] | 97.2% | – |
| CC(C)NC[C@H](O)c1ccc(O)c(O)c1 [L-isoproterenol] | 72.9% | – |
